Data published in PubChem BioAssay (NCI).
Where “and” joins values, the source holds several entries; their conditions need not be identical. Identical values can stand only once.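 How tested: cells in 96-well plates exposed to compound for 48 hours at five concentrations. GI50 is the concentration that inhibits growth by half. TGI marks complete inhibition of growth.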

How the values were obtained:
Assay in all cases: DTP human tumour cell line panel, 48 h
SR leukemia = test system: SR leukemia
CAKI-1 renal = test system: CAKI-1 renal
HL-60(TB) leukemia = test system: HL-60(TB) leukemia
OVCAR-4 ovarian = test system: OVCAR-4 ovarian
UACC-62 melanoma = test system: UACC-62 melanoma
A498 renal = test system: A498 renal
OVCAR-3 ovarian = test system: OVCAR-3 ovarian
DU-145 prostate = test system: DU-145 prostate
PC-3 prostate = test system: PC-3 prostate

| Structure (SMILES) | TGI (SR leukemia) [µM] | TGI (CAKI-1 renal) [µM] | TGI (HL-60(TB) leukemia) [µM] | TGI (OVCAR-4 ovarian) [µM] | TGI (UACC-62 melanoma) [µM] | TGI (A498 renal) [µM] | TGI (OVCAR-3 ovarian) [µM] | GI50 (SR leukemia) [µM] | GI50 (CAKI-1 renal) [µM] | GI50 (DU-145 prostate) [µM] | TGI (DU-145 prostate) [µM] | GI50 (HL-60(TB) leukemia) [µM] | GI50 (OVCAR-4 ovarian) [µM] | GI50 (OVCAR-3 ovarian) | GI50 (UACC-62 melanoma) | GI50 (A498 renal) [µM] | GI50 (PC-3 prostate) | TGI (PC-3 prostate) [µM] |
| --- | --- | --- | --- | --- | --- | --- | --- | --- | --- | --- | --- | --- | --- | --- | --- | --- | --- | --- |
| CCCCNC(=S)OCCC(C)CCCC(C)C (stereo not drawn) | > 100 | > 100 | > 100 | > 100 | > 100 | > 100 |  |  |  |  |  |  |  |  |  |  |  |  |
| COc1cc(/C=C(\NC(=O)c2ccccc2)c2nc3ncncc3[nH]2)cc(OC)c1OC | > 100 | > 100 | > 100 | > 100 | > 100 |  | > 100 |  |  |  |  |  |  |  |  |  |  |  |
| N#C/C(=C1\OC(=N)C(c2ccccc2)C1=O)c1ccccc1 (stereo not drawn) |  | > 96.6 | 54.4 | > 100 | 52.7 | > 100 | > 67.7 |  |  |  |  |  |  |  |  |  |  |  |
| O=C(CCC(=O)Nc1cccc(C(F)(F)F)c1)CC(=O)c1ccc2ccccc2c1 |  | > 100 | > 100 | > 100 | > 100 | > 100 | > 100 |  |  |  |  |  |  |  |  |  |  |  |
| Nc1nc2c(-c3ccc([N+](=O)[O-])cc3)nnn2c2ccccc12 |  | > 100 | > 100 | > 100 | > 100 | > 100 | 95.3 |  |  |  |  |  |  |  |  |  |  |  |
| NS(=O)(=O)c1ccc(NC(=O)C2C(=O)C(=O)N(c3ccc(S(N)(=O)=O)cc3)C2=O)cc1 (stereo not drawn) | > 100 | > 100 |  | > 100 | > 100 | > 100 | > 100 |  |  |  |  |  |  |  |  |  |  |  |
| CCOC(=O)c1[nH]c2cc(OC)c(OC)cc2c1CN(C)C | > 100 | > 100 | > 100 | > 100 | > 100 | > 100 |  |  |  |  |  |  |  |  |  |  |  |  |
| O=C(N=c1nc(NC(=O)c2ccccc2)ss1)c1ccccc1 | 75.4 | 75.8 | 40.6 | > 100 |  | 87.6 | 55.7 |  |  |  |  |  |  |  |  |  |  |  |
| COc1ccc(O)cc1C(O)c1ccccc1 (stereo not drawn) |  | > 100 | > 100 | > 100 | > 100 | > 100 | > 100 |  |  |  |  |  |  |  |  |  |  |  |
| COc1cc2ncnc(Nc3ccc(Oc4ccnc(C)c4)c(C)c3)c2cc1NC(=O)CC1CCSS1 (stereo not drawn) | 2.99 | > 14.5 | 2.83 | 24.3 | 3.71 | 22.8 | 1.6 | 0.365 | 1.31 | 1.44 | 6.31 | 1.28 | 1.54 | 0.853 µM | 1.26 µM | 7.94 |  |  |
| CC1C=CC(C(N)C(=O)O)O1 (stereo not drawn) | > 100 | > 100 | > 100 | > 100 | > 100 | > 100 | > 100 |  |  |  |  |  |  |  |  |  |  |  |
| CC(C)COC1Sc2ccccc2S1 |  | 52.4 |  | 53.4 | 25.8 |  | 34.2 |  |  |  |  |  |  |  |  |  |  |  |
| CCCCCCCCCCCCCCCC(=O)OCCOCCOCCOCCOCCOC(=O)CCCCCCCCCCCCCCC | > 100 | > 100 | > 100 | > 100 | > 100 | > 100 | > 100 |  |  |  |  |  |  |  |  |  |  |  |
| O=C(Nc1ccc(Cl)cc1C(=O)O)c1ccc([N+](=O)[O-])cc1 |  |  | 50.8 | 47.1 | 45.6 | 27.2 | 56.6 |  |  |  |  |  |  |  |  |  |  |  |
| COCCc1n(Cc2ccc3ccccc3c2)c2ccccc2[n+]1Cc1ccc2ccccc2c1 |  |  |  | 1.34 | 1.52 | 2.98 | 1.72 |  |  | 1.06 | 2.33 |  | 0.329 | 0.451 µM | 0.384 µM | 1.54 | 0.412 µM | 1.62 |
| CC1=CP(=O)(c2ccccc2)C=C(C)C1=C(Cl)Cl (stereo not drawn) |  |  | 5.61 | 26 | 21.7 |  | 30.9 |  |  |  |  |  |  |  |  |  |  |  |
| C[N+](C)(C)c1cc[c]([Sn]([c]2ccc([N+](C)(C)C)cc2)([c]2ccc([N+](C)(C)C)cc2)[c]2ccc([N+](C)(C)C)cc2)cc1 | > 100 |  | > 100 | > 100 | > 100 | > 100 | > 100 | > 100 |  |  |  | > 100 | > 100 | > 100 µM | > 100 µM | > 100 |  |  |
| O=C1C=C2CCCC2C(C(=O)O)(C(=O)O)C1 (stereo not drawn) |  | > 100 | > 100 | > 100 | > 100 | > 100 | > 100 |  |  |  |  |  |  |  |  |  |  |  |
| COc1ccc2c(c1)/C(=C\c1c(-c3cc(OC)ccc3OC)nc3sccn13)C(=O)N2 |  | 13.8 |  | 2.87 | 28.5 |  | 14.3 |  | 3.82 |  |  |  | 1.53 | 6.38 µM and 3.51 µM | 5.42 µM and 12.4 µM |  | 7.97 µM and 2.32 µM | 5.83 |
| COc1ccc(/C=C/C(=O)c2c(-c3ccccc3)nn(C)c(=O)c2N2CCOCC2)cc1 |  | > 100 | 60.6 |  | > 100 | > 100 |  |  |  |  |  |  |  |  |  |  |  |  |
| NCCCNc1nc2ccccc2c2c(=O)c3cccc(Cl)c3sc12 | 2.99 | 2.68 |  |  | 3.17 | 2.74 |  | 0.606 | 1.28 | 1.74 | 3.46 |  |  |  | 1.67 µM | 1.02 | 1.52 µM | 2.95 |
